The record followed here is patent US12649748B2, “Wee1 inhibitor and use thereof” (JIANGSU TASLY DIYI PHARMACEUTICAL CO., LTD., priority 2021, dated 2026).

One series deals with T1, Wee1 protein (Homo sapiens, UniProt P30291).
T1 construct: purchased Thermo Fisher PR7373A
The experiment in a line: Binding of compound to Wee1 protein and Tracer 178 by TR-FRET. To be noted: inhibitory activity against Wee1 kinase, read-out: IC50 measured value. In outline:
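TR-FRET tracer displacement: WEE1 (15 nM) with compound, Tracer 178 (50 nM) and anti-GST-Eu cryptate (2 nM) in 50 mM HEPES pH 7.5, 10 mM MgCl2, 1 mM EGTA, 0.01% Brij-35, 0.25% DMSO, 60 min at 25 °C. 665/620 nm emission read; IC50 from variable-slope fit.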

The subject of another series is H1299 cells. The experiment in a line: Anti-proliferative effect by Cell Titer-Glo, H1299. Format: cell-based. The settings on record: Homo sapiens, NCI-H1299, 72 h, read-out: IC50 measured value H1299. Summed up: (§1)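 Cells exposed to 9-point serial dilutions (duplicates, 0.2% DMSO final) for 3 days at 37 °C, 5% CO2. Viability by CellTiter-Glo luminescence; inhibition normalised to untreated-cell and medium controls, IC50 from variable-slope log(inhibitor)–response fit.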

A further series has as its system MIA Paca-2 cells. Description: Anti-proliferative effect by Cell Titer-Glo, MIA Paca-2. The settings on record: Homo sapiens, read-out: IC50 measured value MIA Paca-2. Format: cell-based. In outline:
as §1
For orientation: In ATP-based viability assays light output follows the ATP content of the culture.

Series [1] in a line: Metabolic stability of liver microsomes in vitro (mouse). Format: in vitro ADME. To be noted: read-out: Mouse T1/2/min. As for the experimental part:
Microsomes were taken out from the −80° C. refrigerator, rapidly melted in a 37° C. water bath and placed on ice until ready to use. The test article was diluted with DMSO to prepare a 10 mM stock solution, and then diluted with acetonitrile to a 0.5 mM secondary stock solution. The microsomes were diluted to 0.75 mg/ml using Buffer C; the secondary stock solution was then added to a final concentration of 1.5 μM of compound as working solution, based on n=2, 5 time points, 350 μL of each compound was prepared and placed on ice prior to use. NADPH was diluted with Buffer C to a working solution of 6 mM for the starter solution. An acetonitrile solution containing an internal standard was prepared as the precipitant, and Verapamil-HCl was chosen as the internal standard at a concentration of 4 ng/ml.
A round-bottom well plate was taken, noted as the reaction plate, and the prepared working solution for each compound was dispensed into the well plate according to the number of replicates and time points (0 h samples are also added to the reaction plate), 30 μL/well; the plate was incubated at 37° C. for 10 min. A separate plate with pointed bottom wells, noted as a precipitation plate, was added with 135 μL precipitant per well; 0 h samples were transferred to the plate after 10 min incubation and 15 μL of starter solution was added; the plate was placed on ice before centrifugation.
The diluted starter solution was added in sufficient quantity to the dispensing plate to facilitate the multichannel pipette aspiration operation.
The reaction was carried out on a warm incubation shaker and 15 μL of starter solution/sample is added to the plate using a multichannel pipette. The reaction was mixed with a slight shake to initiate the reaction, which was accurately timed and recorded using a timer;
After the reaction time had elapsed, all the solution in the plate was aspirated using the multichannel pipette and added to the precipitation plate to terminate the reaction at that point in time. After all reactions had been terminated, the plates were shaken for ten minutes on a plate shaker at 600 rpm to precipitate the protein. The plate was centrifuged at 4° C. for 15 minutes at maximum rpm. 80 μL of supernatant was taken, 320 μL of pure water was added and mixed for LC-MS analysis.
A general note: Liver microsomes are vesicles of endoplasmic reticulum, rich in cytochrome P450 enzymes.

The nature of a further series: Solubility test. The class given is physicochemical. To be noted: aqueous buffer, thermodynamic from solid; buffer solution, shaken at constant temperature 24 h. As for the experimental part: The compound was placed in a buffer solution and shaken at constant temperature for 24 h. […] Chromatographic conditions: C18 column, mobile phase A: 0.02 M potassium dihydrogen phosphate:acetonitrile=90:10, mobile phase B: acetonitrile; V: 1.0 ml/min, T: 35° C., λ: 210 nm.

Where [2] appears, read: H1299 cells, 3 days, Cell Titer-Glo.
Where [3] appears, read: 72 h, MIA Paca-2 cells, 3 days, Cell Titer-Glo.

In brackets after ≈: the same amount, converted by molar mass. Where two headings read alike, the source gives them in different places. Some results are limits rather than exact numbers.

T1 sequence (P30291 whole entry): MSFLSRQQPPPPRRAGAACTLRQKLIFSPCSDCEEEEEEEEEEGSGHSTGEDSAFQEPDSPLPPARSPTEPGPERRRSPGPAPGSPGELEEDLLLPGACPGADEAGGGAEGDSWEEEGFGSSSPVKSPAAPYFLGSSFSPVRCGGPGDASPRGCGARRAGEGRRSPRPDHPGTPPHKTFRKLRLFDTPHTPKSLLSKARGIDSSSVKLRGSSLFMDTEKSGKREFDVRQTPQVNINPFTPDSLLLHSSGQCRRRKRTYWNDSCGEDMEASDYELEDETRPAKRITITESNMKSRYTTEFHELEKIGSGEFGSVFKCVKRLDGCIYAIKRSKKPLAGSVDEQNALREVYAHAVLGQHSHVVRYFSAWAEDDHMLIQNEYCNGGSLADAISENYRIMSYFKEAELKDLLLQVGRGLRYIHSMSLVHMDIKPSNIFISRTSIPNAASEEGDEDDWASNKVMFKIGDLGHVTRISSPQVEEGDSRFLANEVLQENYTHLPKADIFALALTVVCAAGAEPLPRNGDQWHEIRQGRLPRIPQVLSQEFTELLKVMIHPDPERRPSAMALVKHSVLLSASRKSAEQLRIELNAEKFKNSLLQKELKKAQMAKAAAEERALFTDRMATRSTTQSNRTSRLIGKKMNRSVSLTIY

As a reminder, the IC50 is the midpoint of a concentration-inhibition curve. A word on the solubility: it is how much of the substance goes into solution per volume. A lower solubility goes with a poorly soluble substance. As to `Cc1cc(Nc2ncc3cnn(-c4cccc(N=S(C)(C)=O)n4)c3n2)ccc1N1CCN(C)CC1` [Compound 16], the IC50 at Wee1 protein lay in the range of 1 to 10 nM; in the series with H1299 cells (setting [2]), 100 to 1000 nM; in the series on MIA Paca-2 cells (setting [3]), 100 to 1000 nM. The half-life at 1 µM in series [1] was determined as 8.9 min. In the series “Solubility test”, this compound gave a solubility at 24 h of 350 µg/mL (≈ 712 µM).
With `CN1CCN(c2ccc(Nc3ncc4cnn(-c5cccc(N=S(C)(C)=O)n5)c4n3)cc2)CC1` [Compound 1], the IC50 on Wee1 protein fell in the range of 1 to 10 nM; in the series with H1299 cells, 1000 to 5000 nM; with MIA Paca-2 cells (MIA PaCa-2, 72 h) it was 100 to 1000 nM. For the same compound, the half-life at 1 µM in series [1] stood at 60.3 min. In “Solubility test”, this compound had a solubility at 24 h of 120 µg/mL (≈ 251 µM).
As to `CN1CCN(c2ccc(Nc3ncc4cnn(-c5cccc(C(C)(C)O)n5)c4n3)cc2)CC1` [Compound 2], the figures for the IC50 on Wee1 protein and in the series on H1299 cells (setting [2]) were 10 to 100 nM and 1000 to 5000 nM, respectively. Besides, the half-life at 1 µM in series [1] turned out to be 15.6 min.
On to `Cc1cc(Nc2ncc3cnn(-c4cccc(N=S(C)(C)=O)n4)c3n2)ccc1N1CCC(N(C)C)CC1` [Compound 14], for which the IC50 at Wee1 protein is 1 to 10 nM; in the series on H1299 cells (setting [2]), 100 to 1000 nM; with MIA Paca-2 cells (setting [3]) it was under 100 nM. In addition, the half-life at 1 µM in series [1] was found to be 67.3 min.
For the compound `CS(C)(=O)=Nc1cccc(-n2ncc3cnc(Nc4ccc(N5CCOCC5)cc4)nc32)n1` [Compound 6], the IC50 is 10 to 100 nM on Wee1 protein and 100 to 1000 nM in the series on H1299 cells (setting [2]).
On to `C=CCn1c(=O)c2cnc(Nc3ccc(N4CCN(C)CC4)cc3)nc2n1-c1cccc(C(C)(C)O)n1` [AZD-1775, reference compound], for which the IC50 in the series on H1299 cells (setting [2]) and in the series with MIA Paca-2 cells (setting [3]) was 100 to 1000 nM each time. Moreover, the half-life at 1 µM in series [1] came to 30.1 min. Besides, the concentration in solution in the series “Solubility test” (solubility at 24 h) came to 30 µg/mL (≈ 59.9 µM).
